Measured values reported in patent US20070270484A1, “3'-N-Substituted-3-O-Substituted Erythronolide a Derivatives” (priority 2003, published 2007).
In brackets after ≈: the same amount, converted by molar mass.

Assays:
S. pneum ATCC 49619 = assay: MIC, agar incorporation method (NCCLS agar dilution method); type: cell-based, streptococcus pneumoniae; conditions: 35±2° C.; for Minimum Inhibitory Concentrations, S. pneum ATCC 49619: 18-24 hours, 5% CO2; for MIC: Streptococcus pneumoniae, ATCC49619, 18-24 hours, 5% CO2, read-out: Minimum Inhibitory Concentrations, S. pneum ATCC 49619
Description: (§1) Drug dilutions and the agar plates are prepared by NCCLS method. Inoculum is prepared by direct colony suspensions in normal saline and adjusted to 0.5 McFarland turbidity and subsequently diluted as per NCCLS guidelines in order to obtain 10^4 CFU/spot. CFU/ml of a few randomly selected cultures is performed. The cultures are replicated on the agar plates using replicator (Denley's multipoint). The plates are incubated at 35±2° C. and in 5% CO2 atmosphere (for respiratory and Haemophilus strains) for 18-24 hours at 35±2° C. Minimum inhibitory concentrations (MIC) are determined after 18-24 hours. Q. C. strains are also included in each run of the study. The cation content of Mueller Hinton agar is checked by performing disk […] of 10 μg gentamicin disk against Pseudomonas aeroginosa ATCC 27853. The zone of inhibition should fall between 16-21 mm. The concentration of drug at which there is complete disappearance of growth spot or formation of less than 10 colonies per spot is considered as MIC.

S. pneum CS 1687 (mef) = assay: as above; type: cell-based, streptococcus pneumoniae; conditions: 18-24 hours, 35±2° C., 5% CO2, mef: efflux pump mef genes; for MIC: Streptococcus pneumoniae, read-out: Minimum Inhibitory Concentrations, S. pneum CS 1687 (mef)
Description: as §1

S. pneum 1251 (mef) = assay: as above; type: cell-based, streptococcus pneumoniae; conditions: 18-24 hours, 35±2° C., 5% CO2, mef: efflux pump mef genes; for MIC: Streptococcus pneumoniae, read-out: Minimum Inhibitory Concentrations, S. pneum 1251 (mef)
Description: as §1

S. pneum ATCC 6303 = assay: as above; type: cell-based, streptococcus pneumoniae; conditions: 35±2° C.; for Minimum Inhibitory Concentrations, S. pneum ATCC 6303: 18-24 hours, 5% CO2; for MIC: Streptococcus pneumoniae, ATCC6303, 18-24 hours, 5% CO2, read-out: Minimum Inhibitory Concentrations, S. pneum ATCC 6303
Description: as §1

S. pneum AB 34 (mef) = assay: as above; type: cell-based, streptococcus pneumoniae; conditions: 18-24 hours, 35±2° C., 5% CO2, mef: efflux pump mef genes; for MIC: Streptococcus pneumoniae, read-out: Minimum Inhibitory Concentrations, S. pneum AB 34 (mef)
Description: as §1

S. pneum 1275 (erm) = assay: microbe, parasite or virus in culture; type: cell-based, streptococcus pneumoniae; conditions: for Minimum Inhibitory Concentrations, S. pneum 1275 (erm): agar dilution, 18-24 hours, 35±2° C., 5% CO2, erm: ribosomal modification (mutation) erm genes; for MIC: Streptococcus pneumoniae, read-out: Minimum Inhibitory Concentrations, S. pneum 1275 (erm)
Description: as §1

S. pneum AB 30 (erm) = assay: microbe, parasite or virus in culture; type: cell-based, streptococcus pneumoniae; conditions: for Minimum Inhibitory Concentrations, S. pneum AB 30 (erm): agar dilution, 18-24 hours, 35±2° C., 5% CO2, erm: ribosomal modification (mutation) erm genes; for MIC: Streptococcus pneumoniae, read-out: Minimum Inhibitory Concentrations, S. pneum AB 30 (erm)
Description: as §1

S. pneum AB 29 (erm) = assay: microbe, parasite or virus in culture; type: cell-based, streptococcus pneumoniae; conditions: for Minimum Inhibitory Concentrations, S. pneum AB 29 (erm): agar dilution, 18-24 hours, 35±2° C., 5% CO2, erm: ribosomal modification (mutation) erm genes; for MIC: Streptococcus pneumoniae, read-out: Minimum Inhibitory Concentrations, S. pneum AB 29 (erm)
Description: as §1

S. pneum 1294 (mef) = assay: microbe, parasite or virus in culture; type: cell-based, streptococcus pneumoniae; conditions: for Minimum Inhibitory Concentrations, S. pneum 1294 (mef): agar dilution, 18-24 hours, 35±2° C., 5% CO2, mef: efflux pump mef genes
Description: as §1

S. pneum AB 14 (erm) = assay: microbe, parasite or virus in culture; type: cell-based, streptococcus pneumoniae; conditions: for Minimum Inhibitory Concentrations, S. pneum AB 14 (erm): agar dilution, 18-24 hours, 35±2° C., 5% CO2, erm: ribosomal modification (mutation) erm genes
Description: as §1

S. pneum 1256 (erm) = assay: microbe, parasite or virus in culture; type: cell-based, streptococcus pneumoniae; conditions: for Minimum Inhibitory Concentrations, S. pneum 1256 (erm): agar dilution, 18-24 hours, 35±2° C., 5% CO2, erm: ribosomal modification (mutation) erm genes
Description: as §1

H. inflenza ATCC 49247 = assay: MIC, agar incorporation method (NCCLS agar dilution method); type: cell-based, Haemophilus influenzae; conditions: for Minimum Inhibitory Concentrations, H. inflenza ATCC 49247: agar dilution, 18-24 hours, 35±2° C., 5% CO2; for MIC: Haemophilus influenzae, ATCC49247, read-out: Minimum Inhibitory Concentrations, H. inflenza ATCC 49247
Description: Minimum inhibitory concentrations (μg/ml) were obtained for representative compounds of the invention, which are given in Table 2.
as §1

MoraXella MI = assay: as above; type: cell-based; conditions: 18-24 hours, 35±2° C.; for MIC: Moraxella, read-out: Minimum Inhibitory Concentrations, MoraXella MI
Description: as §1

Compound	Minimum Inhibitory Concentrations, S. pneum ATCC 49619 (S. pneum ATCC 49619) [µg/mL]	Minimum Inhibitory Concentrations, S. pneum CS 1687 (mef) (S. pneum CS 1687 (mef)) [µg/mL]	Minimum Inhibitory Concentrations, S. pneum 1251 (mef) (S. pneum 1251 (mef)) [µg/mL]	Minimum Inhibitory Concentrations, S. pneum ATCC 6303 (S. pneum ATCC 6303) [µg/mL]	Minimum Inhibitory Concentrations, S. pneum AB 34 (mef) (S. pneum AB 34 (mef)) [µg/mL]	Minimum Inhibitory Concentrations, S. pneum 1275 (erm) (S. pneum 1275 (erm)) [µg/mL]	Minimum Inhibitory Concentrations, S. pneum AB 30 (erm) (S. pneum AB 30 (erm)) [µg/mL]	Minimum Inhibitory Concentrations, S. pneum AB 29 (erm) (S. pneum AB 29 (erm)) [µg/mL]	Minimum Inhibitory Concentrations, S. pneum 1294 (mef) (S. pneum 1294 (mef)) [µg/mL]	Minimum Inhibitory Concentrations, S. pneum AB 14 (erm) (S. pneum AB 14 (erm)) [µg/mL]	Minimum Inhibitory Concentrations, S. pneum 1256 (erm) (S. pneum 1256 (erm)) [µg/mL]	Minimum Inhibitory Concentrations, H. inflenza ATCC 49247 (H. inflenza ATCC 49247) [µg/mL]	Minimum Inhibitory Concentrations, MoraXella MI (MoraXella MI) [µg/mL]	also measured
3-O-(4-Nitrophenyl)acetyl-5-O-(3′-N-desmethyl-3′-N-ethyl)desoaminyl-6-O-methyl erythronolide A [Compound No. 30]	1	1	1	1	>16	>16	>16	<0.5	2	>16	>16	>16	4	–
3-O-(2-Fluorophenyl)acetyl-5-O-(3′-N-desmethyl-3′-N-propargyl)desosaminyl-6-O-methyl erythronolide A [Compound No. 21]	>16	0.5	0.25	0.5	>16	>16	>16	>16	2	>16	>16	>16	0.25	–
CC[C@H]1OC(=O)[C@H](C)[C@@H](O[C@H]2C[C@@](C)(OC)[C@@H](O)[C@H](C)O2)[C@H](C)[C@@H](O[C@@H]2O[C@H](C)C[C@H](N(C)C)[C@H]2O)[C@](C)(O)C[C@@H](C)C(=O)[C@H](C)[C@@H](O)[C@]1(C)O [E, erythromycin A, reference compound]	0.008	>16	8	0.03	>16	>16	>16	>16	>16	>16	>16	>16	0.06	–
CC[C@H]1OC(=O)[C@H](C)[C@@H](O[C@H]2C[C@@](C)(OC)[C@@H](O)[C@H](C)O2)[C@H](C)[C@@H](O[C@@H]2O[C@H](C)C[C@H](N(C)C)[C@H]2O)[C@](C)(OC)C[C@@H](C)C(=O)[C@H](C)[C@@H](O)[C@]1(C)O [C, Clarithromycin, reference compound]	–	–	–	–	–	–	–	–	–	–	–	–	–	MIC (S. pneum ATCC 49619): 0.008 µg/mL (≈ 0.0107 µM); MIC (S. pneum CS 1687 (mef)): > 16 µg/mL; MIC (S. pneum 1251 (mef)): 8 µg/mL (≈ 10.7 µM); MIC (S. pneum ATCC 6303): 0.008 µg/mL (≈ 0.0107 µM); MIC (S. pneum AB 34 (mef)): > 16 µg/mL; MIC (S. pneum 1275 (erm)): > 16 µg/mL; MIC (S. pneum AB 30 (erm)): > 16 µg/mL; MIC (S. pneum AB 29 (erm)): > 16 µg/mL; MIC (S. pneum 1294 (mef); Streptococcus pneumoniae, read-out: Minimum Inhibitory Concentrations, S. pneum 1294 (mef)): > 16 µg/mL; MIC (S. pneum AB 14 (erm); Streptococcus pneumoniae, read-out: Minimum Inhibitory Concentrations, S. pneum AB 14 (erm)): > 16 µg/mL; MIC (S. pneum 1256 (erm); Streptococcus pneumoniae, read-out: Minimum Inhibitory Concentrations, S. pneum 1256 (erm)): > 16 µg/mL; MIC (H. inflenza ATCC 49247): 8 µg/mL (≈ 10.7 µM); MIC (MoraXella MI): 0.125 µg/mL (≈ 0.167 µM)
3-O-(2-Pyridyl)acetyl-5-O-(3′-N-desmethyl-3′-N-cyclopropylmethyl)desosaminyl-6-O-methyl erythronolide A [Compound No. 50]	0.5	1	0.5	0.5	>16	>16	>16	0.5	2	>16	>16	>16	2	–
CC[C@H]1OC(=O)[C@H](C)C(=O)[C@H](C)[C@@H](O[C@@H]2O[C@H](C)C[C@H](N(C)C)[C@H]2O)[C@](C)(OC)C[C@@H](C)C(=O)[C@H](C)[C@H]2N(CCCCn3cnc(-c4cccnc4)c3)C(=O)O[C@]12C [T, Telithromycin, reference compound]	–	–	–	–	–	–	–	–	–	–	–	–	–	MIC (S. pneum ATCC 49619): 0.008 µg/mL (≈ 0.00985 µM); MIC (S. pneum CS 1687 (mef)): 0.125 µg/mL (≈ 0.154 µM); MIC (S. pneum 1251 (mef)): 0.5 µg/mL (≈ 0.616 µM); MIC (S. pneum ATCC 6303): 0.015 µg/mL (≈ 0.0185 µM); MIC (S. pneum AB 34 (mef)): 0.125 µg/mL (≈ 0.154 µM); MIC (S. pneum 1275 (erm)): 0.008 µg/mL (≈ 0.00985 µM); MIC (S. pneum AB 30 (erm)): 0.25 µg/mL (≈ 0.308 µM); MIC (S. pneum AB 29 (erm)): 0.25 µg/mL (≈ 0.308 µM); MIC (H. inflenza ATCC 49247): 2 µg/mL (≈ 2.46 µM); MIC (MoraXella MI): 0.03 µg/mL (≈ 0.0369 µM)
C#CCN(C)C1CC(C)OC(OC2C(C)C(OC(=O)Cc3ccc(F)cc3)C(C)C(=O)OC(CC)C(C)(O)C(O)C(C)C(=O)C(C)CC2(C)OC)C1O (centres unmarked) [Compound No. 18, 3-O-(4-Fluorophenyl)acetyl-5-O-(3′-N-desmethyl-3′-N-propargyl)desosaminyl-6-O-methyl erythronolide A]	1	1	1	1	1	>16	>16	1	1	16	>16	>16	16	–
3-O-(2-Fluorophenyl)acetyl-5-O-(3′-N-desmethyl-3′-N-allyl)desosaminyl-6-O-methyl erythronolide A [Compound No. 23]	2	2	2	2	>16	>16	>16	1	2	>16	>16	>16	16	–
